For assay [1], the system named is 5'ATP aptamer-bridge (DNA, aptamer) CTAGCGAGCGAACTTTACCTGGGGGAGTATTGCGGAGGAAGGT
The assay is described as follows: CD of origami-AuNR probe, single concentration. The conditions noted are these: 5 mM Mg2+, PBS, room temperature, overnight, up to 1 mM.

For assay [2] the test system is unchanged. The assay is described as follows: CD of origami-AuNR probe, competitive hybridization, ATP concentration varied. The conditions noted are these: 5 mM Mg2+, PBS, room temperature, overnight, ATP 1 μM to 1 mM, displaced 5'ATPCS9 (n = 9).
Assay [3] has the same test system. The assay is described as follows: CD of origami-AuNR probe, competitive hybridization, complementary strand length varied. The conditions noted are these: 5 mM Mg2+, PBS, room temperature, overnight, 1 mM ATP, displaced 5'ATPCS9-12, R^2 0.96.
Assay [4] relates to 5'glucose aptamer-bridge (DNA, aptamer) CTAGCGAGCGAACTTTACGACCGTGTGTGTTGCTCTGTAACAGTGTCCATTGTCGT
The assay is described as follows: CD of origami-AuNR probe, single concentration. The conditions noted are these: 5 mM Mg2+, PBS, room temperature, overnight, up to 100 mM fructose, displaced 5' strand n = 10.

Assay [5] has the same test system. The assay is described as follows: CD of origami-AuNR probe, competitive hybridization, complementary strand length varied. The conditions noted are these: 5 mM Mg2+, PBS, room temperature, overnight, 100 mM glucose, displaced 5'gluCS8-12, R^2 0.99.

The record followed here is paper PMC8908738 (2022).

Each structure is given as a SMILES string.

Regarding `Nc1ccn([C@@H]2O[C@H](COP(=O)(O)OP(=O)(O)OP(=O)(O)O)[C@@H](O)[C@H]2O)c(=O)n1`, the binding result in assay [1] (displaced 5'ATPCS9, CD change 2.1% (ATP 53.7%)) is “no”.

For the compound `Nc1nc2c(ncn2[C@@H]2O[C@H](COP(=O)(O)OP(=O)(O)OP(=O)(O)O)[C@@H](O)[C@H]2O)c(=O)[nH]1`, the binding entry in assay [1] (displaced 5'ATPCS9, CD change 3.6% (ATP 53.7%)) is given as “no”.

For the compound `Nc1ncnc2c1ncn2[C@@H]1O[C@H](COP(=O)(O)OP(=O)(O)OP(=O)(O)O)[C@@H](O)[C@H]1O`, the “KD2^ATP” value in assay [2] came out at 4.54 ± 0.580 µM; in assay [3], 5.71 ± 0.865 µM.

Consider `OCC1(O)OC[C@@H](O)[C@@H](O)[C@@H]1O` (stereo partly drawn), for which the binding entry in assay [4] is “no”.

`OC[C@H]1OC(O)[C@H](O)[C@@H](O)[C@@H]1O` (stereo partly drawn): the “KD2^glu” value in assay [5] is listed as 5.57 ± 0.436 mM.
